# Data reported in patent US8686113B2 (priority 2009, dated 2014).
# Like-named read-outs stand apart in the source and are kept apart here. Non-standard residues stand in square brackets, D forms with d. Residues, ends and D or L forms follow the SMILES beside them. No end group written: not given here. Hyp = O=C(O)[C@@H]1C[C@@H](O)CN1; Orn = NCCC[C@H](N)C(=O)O
# How the values were obtained:
# E. coli BL21 A1 = assay type: cell-based, Escherichia coli; conditions: BL21, 20 h
# Procedure, shortened: (§1)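 Broth microdilution in 1% TSB with twofold peptide series, final 128 μg/mL to 62.5 ng/mL, against 5×10^6 bacteria/mL stock suspension added 1:1. Incubated 20 h at 37 °C, growth read by absorbance at 595 nm; MIC is the lowest concentration with no growth, determined in triplicate.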
# M. luteus 10240 [1] = assay: Growth inhibition assay (microdilution MIC); assay type: cell-based, Micrococcus luteus; conditions: 10240, 20 h
# Procedure, shortened: as §1
# E. coli 045-849 SENTRY = conditions: ¼ Muller-Hinton medium
# E. coli ATCC BAA-457 = conditions: ¼ Muller-Hinton medium
# E. coli D31 J. Wilson = conditions: ¼ Muller-Hinton medium
# K. pneumoniae ATCC 27799 = conditions: ATCC 27799
# [2] = test system: K. pneumoniae K6 ATCC 700603; conditions: ATCC 700603
# [3] = test system: P. aeruginosa 10 J. Wilson
# P. mirabilis ATCC 7002 = conditions: ATCC 7002
# P. vulgaris ATCC 6896 = conditions: ATCC 6896
# S. saprophyticus 15305 = conditions: 15305
# [4] = test system: S. typhimurium ATCC 14028
# [5] = test system: S. typhimurium ATCC 700408
# [6] = test system: S. typhimurium s5 (J. Weiser); conditions: ¼ Muller-Hinton medium
# [7] = mouse, serum, Half-life in 25% mouse serum, 25% aqueous mouse serum, 37° C., 75 μg/mL peptide
# [8] = mouse, serum
# [9] = test system: Escherichia coli DSM 10233
# [10] = test system: Klebsiella pneumoniae DSM 681
# [11] = test system: Pseudomonas aeruginosa DSM 3227
# [12] = 25% aqueous mouse serum, 37° C., 75 μg/mL peptide
# in vitro = conditions: mouse, 100% mouse serum
# human erythrocytes = assay: Hemolysis test; assay type: cell-based; conditions: 1 h at 37° C., relative to Triton X-100
# Description: Another possibility for investigating the cytotoxicity of the peptides and peptide derivatives is the hemolysis test. The hemolytic activity is investigated on human erythrocytes (Ryge T S & Hansen P R. Potent antibacterial lysine-peptoid hybrids identified from a positional scanning combinatorial library. Bioorganic & Medicinal Chemistry 14: 4444-51, 2006), which the Leipzig University Hospital (Germany) made available as human erythrocyte concentrate in sodium chloride-adenine-glucose-mannitol buffer (stored at 4° C.). The erythrocytes were centrifuged off at 1000 g and washed three times with ten times the volume of cold phosphate-buffered saline (PBS, pH 7.4). The erythrocytes were diluted to a final concentration of 1% in PBS. One hundred microliters of erythrocyte suspension was pipetted into each V-shaped well of a 96-well polypropylene microtiter plate (Greiner Bio-One GmbH). Then 100 μL of the peptides dissolved in PBS was added to each position, to obtain a dilution series from 600 μg/mL to 4.7 μg/mL in seven dilution steps. The microtiter plate was incubated at 37° C. for 1 h and then centrifuged at 1000*g. 100 μL was taken from the supernatant, transferred to a 96-well flat-bottomed polystyrene microtiter plate (Greiner Bio-One GmbH) and the absorption was determined at 405 nm in a Sunrise microtiter plate reader (Tecan Trading AG, Mannedorf, Switzerland), to evaluate the release of the heme group. PBS or 0.1% Triton X-100® ((p-tert-octylphenoxy) polyethoxyethanol; Fluka Chemie GmbH, Buchs, Switzerland) and melittin (SIGMA-Aldrich-Laborchemikalien, Taufkirchen, Germany) were used as negative or positive controls. All hemolysis tests were carried out twice independently as double determination and the degree of hemolysis was determined from the following equation (Park Y et al. A Leu-Lys-rich antimicrobial peptide: activity and mechanism. Biochimica et Biophysica Acta-Proteins and Proteomics 1645: 172-82, 2003): Epeptide−EPBS)/ETriton−EPBS)×100% E=extinction at 405 nm
# [13] = background statement; cited from earlier work
# M. luteus 10240 [14] = assay type: cell-based, Micrococcus luteus; conditions: alanine scan
# Procedure: The purified peptides and peptide derivatives were diluted in water to a final concentration of 500 μg/mL. The test microbes were plated out from a culture in the logarithmic growth phase at a concentration of approx. 3×10^5 cells/mL in 1% tryptic soy broth and 1.2% agarose (Fluka Chemie GmbH, Buchs, Switzerland). With spacing of 3 cm, in each case 10 μL of aqueous peptide solution (500 μg/mL) or 10 μL of water and antibiotic solution as controls were added dropwise. After incubation for 20 h at 37° C., the inhibition zone diameter (IZD) was determined. All tests were performed in aerobic conditions.
# [15] = Stability against bacterial proteases in E. coli lysate; assay type: in vitro ADME; conditions: E. coli lysate with 0.5 mg/mL protein concentration, 37° C.
# Procedure: For the bacterial lysate, 500 mL of nutrient broth (Carl Roth GmbH+Co. KG, Karlsruhe) was inoculated with E. coli BL21 A1 and incubated overnight at 37° C. 2×250 mL bacterial suspension were centrifuged for 25 min at 5000 rpm and 4° C. in a Beckman Avanti™ J-20-XP centrifuge with JLA-10.500 rotor (Beckman Coulter, Fullerton, U.S.A.). The pellets were each suspended in 30 mL PBS (pH 7.4) and centrifuged again in a Beckman Allegra™ 2IR centrifuge (Beckman Coulter, Fullerton, U.S.A.). The pellets were each suspended in 10 mL PBS and were disrupted with ultrasound (Vibra-cell™ microtip, Fisher Bioblock Scientific, Illkirch, France) 2×5 min (750 W; amplitude 40%; 2 s on/3 s off) on ice. The bacterial lysates were combined and 1 mL aliquots were centrifuged at 15400 rpm for 20 min at 4° C. (Beckman Allegra™). The supernatants were removed and stored at −20° C. The protein content of the bacterial lysate was determined by protein determination according to Bradford.
# A solution of 0.15 μg/mL peptide in bacterial lysate with protein content of 1.5 mg/mL or 0.5 mg/mL was incubated at 37° C. After 0, 30, 60, 120, 240 or 360 min, 200 μL was taken from each and the proteins were precipitated with 50 μL of 15% trichloroacetic acid. Then it was incubated for 10 min at 4° C. and then centrifuged for 5 min at 13000 rpm in a Minispin desktop centrifuge. 210 μL was taken from the supernatant and neutralized with 1 mol/L sodium hydroxide solution. The intact peptide and the degradation products were analyzed by HPLC. 60 μL of 3% aqueous acetonitrile with 0.1% trifluoroacetic acid (TFA) was added to the solution and 250 μL of the mixture was injected. After chromatographic separation, the constituents were identified by MALDI-TOF-MS,
# In order to investigate the stability against bacterial proteases, a lysate was prepared from an overnight culture of E. coli BL21 A1 and the peptides were incubated in it. Using Bradford protein determination, the protein concentration was adjusted to 0.5 or 1.5 mg/mL.
# [16] = E. coli lysate with 0.5 mg/mL protein concentration; conditions: E. coli BL21 A1, 37° C., up to 360 min
# 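Throughout, for Half-life in 25% mouse serum: intact peptide left at successive time points measured by reversed-phase HPLC with an acetonitrile gradient in the supernatant after precipitation of serum proteins.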
compound,measurement,setting,value
CC[C@H](C)[C@H](NC(=O)[C@H](CCCNC(=N)N)NC(=O)[C@H](CCCNC(=N)N)NC(=O)[C@@H]1C[C@@H](O)CN1C(=O)[C@@H]1CCCN1C(=O)[C@H](CCCNC(=N)N)NC(=O)[C@@H]1CCCN1C(=O)[C@H](CCCNC(=N)N)NC(=O)[C@@H]1CCCN1C(=O)[C@H](CC(C)C)NC(=O)[C@H](Cc1ccc(O)cc1)NC(=O)[C@@H]1CCCN1C(=O)[C@@H]1CCCN1C(=O)[C@H](CCCCN)NC(=O)[C@H](CC(=O)O)NC(=O)[C@@H](N)C(C)C)C(=O)N[C@@H](Cc1ccc(O)cc1)C(=O)N[C@@H](CC(N)=O)C(=O)N[C@@H](CCCNC(=N)N)C(N)=O [compound 24] (H-VDKPPYLPRPRP[Hyp]RRIYNR-NH2),MIC E. coli BL21 A1,E. coli BL21 A1,8 µg/mL
same,MIC M. luteus 10240,M. luteus 10240 [1],8 µg/mL
same,MIC E. coli 045-849 SENTRY,E. coli 045-849 SENTRY,2 µg/mL
same,MIC E. coli SEQ 102ATCC # BAA-4 57,E. coli ATCC BAA-457,4 µg/mL
same,MIC E. coli D31 J. Wilson,E. coli D31 J. Wilson,1 µg/mL
same,MIC K. pneumoniae 012-3131,K. pneumoniae 012-3131,2 µg/mL
same,MIC K. pneumoniae ATCC 27799,K. pneumoniae ATCC 27799,8 µg/mL
same,MIC K. pneumoniae K6 ATCC 700603,[2],8 µg/mL
same,MIC P. aeruginosa 10 J. Wilson,[3],2 µg/mL
same,MIC P. aeruginosa 39324,P. aeruginosa 39324,4 µg/mL
same,MIC P. mirabilis ATCC 7002,P. mirabilis ATCC 7002,128 µg/mL
same,MIC P. vulgaris ATCC 6896,P. vulgaris ATCC 6896,128 µg/mL
same,MIC S. saprophyticus 15305,S. saprophyticus 15305,16 µg/mL
same,MIC S. typhimurium ATCC 14028,[4],2 µg/mL
same,MIC S. typhimurium ATCC 700408,[5],0.13 µg/mL
same,MIC S. typhimurium s5 (J. Weiser),[6],2 µg/mL
same,half-life,[7],1 h
same,half-life,[8],0.583 h
CC[C@H](C)[C@H](NC(=O)[C@@H]1C[C@@H](O)CN1C(=O)[C@H](CCCNC(=N)N)NC(=O)[C@@H]1CCCN1C(=O)[C@@H]1CCCN1C(=O)[C@H](CCCNC(=N)N)NC(=O)[C@@H]1CCCN1C(=O)[C@H](CCCNC(=N)N)NC(=O)[C@@H]1CCCN1C(=O)[C@H](CC(C)C)NC(=O)[C@H](Cc1ccc(O)cc1)NC(=O)[C@@H]1CCCN1C(=O)[C@@H]1CCCN1C(=O)[C@H](CCCCN)NC(=O)[C@H](CC(=O)O)NC(=O)[C@@H](N)C(C)C)C(=O)N[C@@H](Cc1ccc(O)cc1)C(=O)N[C@@H](CC(N)=O)C(=O)N[C@@H](CCCN)C(N)=O [compound 63] (H-VDKPPYLPRPRPPR[Hyp]IYN[Orn]-NH2),MIC E. coli BL21 A1,E. coli BL21 A1,4 µg/mL
same,MIC E. coli DSM 10233,[9],1 µg/mL
same,MIC K. pneumoniae DSM 681,[10],2 µg/mL
same,MIC P. aeruginosa DSM 3227,[11],16 to 32 µg/mL
same,half-life,[8],> 8 h
same,Half-life in 25% mouse serum,[12],>6 h
same,"remaining at 8 h, 75 μg/mL",in vitro,60%
"(p-tert-octylphenoxy) polyethoxyethanol [Triton X-100, reference compound]",Degree of hemolysis [%] at 600 μg/mL,human erythrocytes,100%
GKPRPYSPRPTSHPRPIRV [compound 89],Degree of hemolysis [%] at 600 μg/mL,human erythrocytes,1.1%
"GKPRPYSPRPTSHPRPIRV-OH [SEQ ID NO. 89, reference compound]",MIC M. luteus 10240,M. luteus 10240 [1],0.5 µg/mL
same,degradation in mammalian serum (25%),[13],broken down within an hour
GNNRPVYIPQPRPPHPRL [compound 87],Degree of hemolysis [%] at 600 μg/mL,human erythrocytes,1.2%
H-VDKPPYLPRPRPPRRAYNR-NH2 [SEQ ID NO. 44],"increase in inhibition zone relative to oncocin, M. luteus",M. luteus 10240 [14],0.7 cm
H-VDKPPYLPRPRPPRRIYAR-NH2 [SEQ ID NO. 46],"increase in inhibition zone relative to oncocin, M. luteus",M. luteus 10240 [14],0.7 cm
H-VDKPPYLPRPRPPRRIYNR-NH2 [compound 18],half-life,[15],1 h
same,MIC E. coli DSM 10233,[9],16 µg/mL
same,MIC K. pneumoniae DSM 681,[10],4 µg/mL
same,MIC P. aeruginosa DSM 3227,[11],>32 µg/mL
same,MIC E. coli 045-849 SENTRY,E. coli 045-849 SENTRY,4 µg/mL
same,MIC E. coli SEQ 102ATCC # BAA-4 57,E. coli ATCC BAA-457,4 µg/mL
same,MIC K. pneumoniae ATCC 27799,K. pneumoniae ATCC 27799,16 µg/mL
same,MIC K. pneumoniae K6 ATCC 700603,[2],8 µg/mL
same,MIC P. aeruginosa 10 J. Wilson,[3],8 µg/mL
same,MIC S. typhimurium ATCC 14028,[4],2 µg/mL
same,MIC S. typhimurium s5 (J. Weiser),[6],4 µg/mL
same,Degree of hemolysis [%] at 600 μg/mL,human erythrocytes,1.5%
same,half-life,[7],1 h
same,half-life,[8],0.5 h
VDKGSYLPRPTPPRPIYNRN-NH2 [SEQ ID NO. 91],half-life in mammalian serum (25%),[13],2 h
VDKPPYLPRPRP-4tHyp-R-4tHyp-Tle-YNO-NH2,not cleaved,[16],">240 min, 90%"
VDKPPYLPRPRPPRO-Tle-YNO-NH2,not cleaved,[16],">240 min, 90%"
